Data on five compounds can be found in paper PMC4949465, “Comparative chemical array screening for p38γ/δ MAPK inhibitors using a single gatekeeper residue difference between p38α/β and p38γ/δ” (Scientific Reports, 2016).

Molecules are shown by their SMILES. Where “and” joins values, the source holds several entries; their conditions need not be identical. Equal entries are not always repeated.

Assay [1] relates to MUC5AC. Details: method as in PMID 23187130. The following applies: airway epithelial cells; BIRB796 at high concentration; cited from earlier work.
Assay [2] deals with T1, GST-p38αT106M (Homo sapiens, UniProt Q16539, T106M).
T1 construct: made in house
The assay is described as follows: In vitro kinase assay, GST-ATF2 substrate, [γ-32P]ATP. It is filed as biochemical. How it is done:
(§1) Bacterially produced GST-p38α and GST-p38αT106M were used for the kinase assay. GST-ATF2 (1–109)[34] was used as a substrate. The assay conditions used have been previously described. […] DMSO (1 μL) was used instead of compound as a negative control. Then, the mixture was combined with the solution containing 1 μg substrate protein, 185 kBq [γ-^32P]ATP and 20 μΜ ATP to generate a 15 μL reaction mixture and incubated for 30 min at 30 °C. The reaction was terminated by adding 7.5 μL of 3 × SDS sample buffer and boiled for 5 min. Phosphorylated substrate protein was then separated by 12.5% SDS- polyacrylamide gel electrophoresis and visualized by autoradiography.

Assay [3] concerns the target T2, p38αT106M (Homo sapiens, UniProt Q16539, T106M).
T2 construct: purchased Eurofins Pharma Discovery Services UK Limited (KinaseProfiler service)
The assay is described as follows: KinaseProfiler quantitative kinase assay (Eurofins), MBP substrate. Type of assay: biochemical. The note with it: ATP at Km 70 µM, means of duplicate determinations. How it is done:
(§2) SU-002 derivatives (SU-001, 003, 004, 005, and 006, shown in Fig. 3A) were synthesized and the inhibitory activities of SU-002 and its derivatives against p38αT106M were tested. […] We then conducted quantitative kinase assay analyses including IC50 using the KinaseProfiler service of Eurofins Pharma Discovery Services. MBP was used as a substrate for all tested p38 isoforms: p38α, p38αT106M, p38γ, and p38δ. All p38 isoforms used were activated using a constitutively active mutant of MKK6. […] Next, we examined their effects in HeLa cells. […] To verify the specificity of SU-005 for p38δ, a FLAG-tagged p38δM107T was constructed and tested in a similar manner.
(§3) Quantitative kinase assay analyses including IC50 were conducted using the KinaseProfiler service of Eurofins Pharma Discovery Services UK Limited.

Assay [4] addresses T3, p38α (Homo sapiens, UniProt Q16539).
T3 construct: purchased Eurofins Pharma Discovery Services UK Limited (KinaseProfiler service)
The description is as above. Type of assay: biochemical. The following applies: ATP at Km 90 µM, means of duplicate determinations. As for the experimental part:
as §2, §3

Assay [5] concerns the target T4, p38δ (Homo sapiens, UniProt O15264).
T4 construct: purchased Eurofins Pharma Discovery Services UK Limited (KinaseProfiler service)
T4 sequence (O15264 1-365): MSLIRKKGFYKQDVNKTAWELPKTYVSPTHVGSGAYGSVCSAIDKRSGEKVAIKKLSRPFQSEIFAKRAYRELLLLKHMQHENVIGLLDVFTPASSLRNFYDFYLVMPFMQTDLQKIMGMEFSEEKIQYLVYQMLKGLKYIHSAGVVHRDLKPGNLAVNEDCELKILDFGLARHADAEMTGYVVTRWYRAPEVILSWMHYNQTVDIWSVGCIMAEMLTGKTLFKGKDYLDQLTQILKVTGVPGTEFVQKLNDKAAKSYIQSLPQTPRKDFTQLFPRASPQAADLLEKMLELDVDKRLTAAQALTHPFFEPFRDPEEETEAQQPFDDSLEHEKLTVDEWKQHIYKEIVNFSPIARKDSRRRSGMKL
The assay is described as above. Type of assay: biochemical. The following applies: ATP at Km 15 µM, means of duplicate determinations. How it is done:
as §2, §3

In assay [6] the target is T5, p38γ (Homo sapiens, UniProt P53778).
T5 sequence (P53778 1-367): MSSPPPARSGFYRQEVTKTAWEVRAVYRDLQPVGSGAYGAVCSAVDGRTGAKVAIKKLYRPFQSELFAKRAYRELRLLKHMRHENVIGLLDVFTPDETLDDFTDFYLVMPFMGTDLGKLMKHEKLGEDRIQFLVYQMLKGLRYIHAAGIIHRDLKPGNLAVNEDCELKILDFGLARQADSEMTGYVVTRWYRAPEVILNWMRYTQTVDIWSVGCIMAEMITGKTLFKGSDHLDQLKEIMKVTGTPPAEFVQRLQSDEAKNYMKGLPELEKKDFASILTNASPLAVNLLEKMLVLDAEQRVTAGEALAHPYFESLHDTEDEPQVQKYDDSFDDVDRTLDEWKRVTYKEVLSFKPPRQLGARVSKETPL
Described as above. Details: purchased Eurofins Pharma Discovery Services UK Limited (KinaseProfiler service). Type of assay: biochemical. The note with it: ATP at Km 15 µM, means of duplicate determinations. As for the experimental part:
as §2, §3

Assay [7] concerns the target T6, GST-p38αT106M mutant (Homo sapiens, UniProt Q16539, T106M).
T6 construct: made in house; host or cells: bacteria (stated for the kinase assay)
The assay is described as follows: Comparative chemical array screening, binding to GST-p38αT106M. The note with it: Table S2. As for the experimental part:
Photo-cross-linked chemical arrays were prepared by the previously described method[33] utilizing a photoaffinity proline linker that had both PEG and a polyproline helix as spacers.
The slides were then washed with TBS-T buffer (10 mM Tris/HCl, 150 mM NaCl, 0.05% Tween-20, pH 8.0) three times for 5 min each and centrifuged (480 × g, 1 min) to dry. […] After washing with TBS-T buffer, the slides were incubated with an anti-GST antibody (30 μg/mL) in binding buffer at 30 °C for 1 h. This incubation was followed by another wash step and incubation with a secondary antibody (goat anti-rabbit IgG, Cy5 conjugate, 50 μg/mL in binding buffer) at 30 °C for 1 h. After the final wash step and spin dry, the slides were scanned at 635 nm on a GenePix 4300A microarray scanner (Molecular Devices). The fluorescence intensity (I) of each compound spot was quantified with GenePix 5.0 software with local background correction. Then, the difference (ΔΙ) of the fluorescence intensities between the GST-p38αT106M and GST-p38α-treated arrays was calculated by subtracting Ip38α from IT106M (ΔI = IT106M - Ip38α) for each spot. The mean and standard deviation (SD) of ΔI for all spots on the array were also calculated. The ΔΙ score of each spot was calculated using the following formula; ΔΙ score = (ΔI - mean)/SD. The compounds with a ΔΙ score larger than 2 were determined to be hit compounds for GST-p38αT106M. […]

In assay [8] the target is T7, GST-p38α (Homo sapiens, UniProt Q16539).
T7 construct: made in house
Briefly: In vitro kinase assay, GST-ATF2 substrate, [γ-32P]ATP. The following applies: Fig. 2C, SU-002 0.06-7.6 μM. It is filed as biochemical. How it is done: as §1

Assay [9] deals with T8, endogenous p38γ (Homo sapiens, UniProt P53778).
T8 construct: endogenous in cells; host or cells: HEK293T
T8 sequence (P53778 1-367): T5 sequence (P53778 1-367)
The assay is described as follows: Endogenous p38γ auto-phosphorylation in HEK293T cells, western blot. The following applies: 10 μM, 0.2 M NaCl stimulation, Fig. 6. Type of assay: cell-based. As for the experimental part:
For the analyses with HEK293T cells, 1 × 10^5 cells were seeded into each well of a 48-well plate. The next day, 10 μM SU derivative or SB202190 was added 1 h prior to stimulation of the cells with 0.2 M NaCl. The cells were further grown in DMEM supplemented with 10% FBS for 20 min. Then, the cells were rinsed once with PBS and harvested in 1 × SDS sample buffer.

T6 sequence (Q16539 whole entry T106M): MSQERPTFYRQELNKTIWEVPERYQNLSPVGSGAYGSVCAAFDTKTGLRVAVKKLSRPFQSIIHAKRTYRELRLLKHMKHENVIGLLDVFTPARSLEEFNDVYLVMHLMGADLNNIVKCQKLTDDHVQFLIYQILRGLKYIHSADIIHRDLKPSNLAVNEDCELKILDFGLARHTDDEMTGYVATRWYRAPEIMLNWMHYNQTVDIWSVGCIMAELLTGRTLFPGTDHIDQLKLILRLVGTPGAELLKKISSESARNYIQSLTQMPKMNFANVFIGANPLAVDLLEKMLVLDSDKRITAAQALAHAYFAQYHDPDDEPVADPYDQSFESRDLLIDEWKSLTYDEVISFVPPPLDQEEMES
T1 sequence (Q16539 whole entry T106M): as above
T2 sequence (Q16539 whole entry T106M): as above
T3 sequence (Q16539 whole entry): as the sequence (Q16539 whole entry T106M) above, with M106T counted along it
T7 sequence (Q16539 whole entry): as the sequence (Q16539 whole entry T106M) above, with M106T counted along it

For the compound `Cc1ccc(-n2nc(C(C)(C)C)cc2NC(=O)Nc2ccc(OCCN3CCOCC3)c3ccccc23)cc1` [BIRB796], the “inhibition of production of MUC5AC mRNA and protein” value in assay [1] is reported as “markedly inhibited”.
As to `Nc1nnc(Sc2ccnc3cc(Cl)ccc23)s1` [SU-001], the “inhibition of p38αT106M kinase activity” value in assay [2] (1 μM, Fig. 3B,C) is reported as “did not inhibit”. The “%kinase activity relative to control, p38αT106M” value in [3] (1 µM) was 99 ± 0%; in assay [3] (10 µM), 91 ± 6%. Further, the “%kinase activity relative to control, p38α” value in assay [4] (1 µM) amounted to 91 ± 13%; in assay [4] (10 µM), 72 ± 2%. In addition, the “%kinase activity relative to control, p38δ” value in assay [5] (1 µM) is 94 ± 2%; in [5] (10 µM) it was 92 ± 1%. The “%kinase activity relative to control, p38γ” value is reported as 103 ± 8% in assay [6] (1 µM) and 95 ± 2% in [6] (10 µM).
With `CCCCCCCC(=O)Nc1nnc(Sc2ccnc3cc(Cl)ccc23)s1` [SU-002], the IT106M score in assay [7] (I score = (I − Imean)/ISD, duplicate spots) was 4.80 and 3.66. Besides, the ΔI score in assay [7] (ΔI = IT106M – Ip38α, ΔI score = (ΔI − ΔImean)/ΔISD, hit if larger than 2) was 6.30 and 4.89. Further, the “inhibition of p38α kinase activity” value in assay [8] was “this inhibition was not seen”. Further, the “inhibition of p38αT106M kinase activity” value in [2] (1 μM, Fig. 3B,C) is “clearly impaired”; in [2] (Fig. 2C,D, SU-002 0.012-7.6 μM) it was “inhibited the kinase activity of p38αT106M in a dose-dependent manner”. In assay [9], the “inhibition of endogenous p38γ phosphorylation” value was “similarly potent inhibitory activities”. For the same compound, the entries for the “%kinase activity relative to control, p38αT106M” value in assay [3] (1 µM) and in assay [3] (10 µM) were 83 ± 7% and 72 ± 2%, respectively. In addition, the “%kinase activity relative to control, p38α” value in [4] (1 µM) is 88 ± 6%; in [4] (10 µM), 94 ± 5%. Besides, the figures for the “%kinase activity relative to control, p38δ” value in assay [5] (1 µM) and in assay [5] (10 µM) were 90 ± 0% and 96 ± 0%, respectively. The entries for the “%kinase activity relative to control, p38γ” value in assay [6] (1 µM) and in assay [6] (10 µM) were 92 ± 5% and 88 ± 2%, respectively.
On to `CC(=O)Nc1nnc(Sc2ccnc3cc(Cl)ccc23)s1` [SU-003], for which the “inhibition of endogenous p38γ phosphorylation” value in assay [9] is reported as “no or weak inhibitory activity”. Moreover, the figures for the “%kinase activity relative to control, p38αT106M” value in assay [3] (1 µM) and in [3] (10 µM) were 96 ± 4% and 94 ± 1%, respectively. Also, the “%kinase activity relative to control, p38α” value turned out to be 92 ± 8% in assay [4] (1 µM) and 94 ± 6% in assay [4] (10 µM). For the same compound, the “%kinase activity relative to control, p38δ” value is 99 ± 2% in assay [5] (1 µM) and 81 ± 1% in [5] (10 µM). Also, the figures for the “%kinase activity relative to control, p38γ” value in assay [6] (1 µM) and in [6] (10 µM) were 112 ± 3% and 104 ± 6%, respectively.
`CCCCCC(=O)Nc1nnc(Sc2ccnc3cc(Cl)ccc23)s1` [SU-004]: the “inhibition of endogenous p38γ phosphorylation” value in [9] is listed as “no or weak inhibitory activity”. For the same compound, the “%kinase activity relative to control, p38αT106M” value in assay [3] (1 µM) is listed as 99 ± 0%; in assay [3] (10 µM), 94 ± 3%. In addition, the “%kinase activity relative to control, p38α” value in assay [4] (1 µM) is reported as 91 ± 2%; in [4] (10 µM), 86 ± 3%. Besides, the “%kinase activity relative to control, p38δ” value was 100 ± 4% in [5] (1 µM) and 97 ± 3% in [5] (10 µM). Also, the “%kinase activity relative to control, p38γ” value in assay [6] (1 µM) is 111 ± 4%; in [6] (10 µM), 104 ± 8%.
